Measurements as given in patent publication US20080003311A1, “Rosmarinus extracts for inhibiting/treating skin aging” (SOCIETE L'OREAL, S.A., priority 1999, published 2008).

Tested on: normal human dermal fibroblasts
Assay: Incorporation of radioactive proline (collagen synthesis) into cultures of normal human dermal fibroblasts
Type: cell-based
Protocol: The study was conducted by measuring the incorporation of radioactive proline into cultures of normal human dermal fibroblasts. The fibroblast cultures were prepared according to conventional cell culture methods, i.e., in MEM/M199 medium marketed by Gibco in the presence of sodium bicarbonate (1.87 mg/ml), of L-glutamine (2 mM), of penicillin (50 IU/ml) and of 10% of fetal calf serum (Gibco). The assay was carried out on cell cultures at 80% confluency, in a 24-well plate. […] The labeling with tritiated proline (L-[2,3-^3H]-proline sold by Amersham, 33 (μCi/ml) was carried out for 24 hours. The level of tritiated proline incorporated was measured at the end of the assay by acid precipitation of the proteins on filters and liquid scintillation counting. […] A positive control (vitamin C at 20 (g/ml) known to stimulate collagen synthesis was introduced into the assay as a reference. The results of this assay, expressed as percentages of activation, are reported in the following Table I: […]

O=C1O[C@H]([C@@H](O)CO)C(O)=C1O [Vitamin C]
cpm (tritiated proline incorporated) (vitamin C at 20 (g/ml, positive control), untreated cells 7498 cpm): 13091 cpm | percentage of activation of proline incorporation (vitamin C at 20 (g/ml, versus untreated cells)): 75%
